Assay results published in patent US20010010827A1, “Method and composition for treatment of headache using magnesium” (priority 1991, published 2001).
Read-outs that look alike come from different tables or passages of the source.

How the values were obtained:
[1] = tested on: chronic migrainous headache; experiment: Therapies tried in patient #27 for two months before the MgSO4 infusion; format: in vivo, human; settings: acetaminophen 1000 mg or ibuprofen 400 mg four times/day, nabumetone 1000 mg/day for two weeks, cyproheptadine 4 mg nightly for two weeks
Description: Long-term results in patients with intermittent migraine attacks is difficult to gauge because of the variable frequency of migraines in these patients. Responses in patients with chronic headaches also varied. […] Various therapists (i.e., acetaminophen—1000 mg or ibuprofen—400 mg-four times/day; nabumetone— 1000 mg/day for two weeks; cyproheptadine—4 mg nightly for two weeks; physical exercise) were tried in this patient for two months prior to the infusion with no relief.

[2] = tested on: headache (migraine, cluster, chronic migrainous, chronic tension-type)
Source text: Forty consecutive patients who presented to the headache clinic with a moderate or severe headache of any type (4 or higher on a verbal 1 to 10 scale) were enrolled in this study after an informed consent. […] Patients with renal, cardiac, diabetic or other medical problems were excluded. The international Headache Society classification was used to diagnose all patients.^23 Age-matched healthy volunteers served as control subjects.
Immediately prior to the magnesium infusion a blood sample of serum IMg^2+, total magnesium (TMg) and ionized calcium (ICa^2+) was drawn under anaerobic conditions. The laboratory personnel (B.T.A., B.M.A.) were blinded as the blood samples were not accompanied by any clinical information, while the clinician administering the infusion (A.M.) received test results several days after the completion of the evaluation. Serum levels of IMg^2+ and ICa^2+ were measured using ion-selective electrodes with a NOVA Biomedical Stat Profile 8 Analyzer.^16-18 The lower limit of normal for IMg^2+ levels in this study was 0.55/mmol/L. The normal range for the ICa^2+/IMg^2+ ratio is 1.92-2.08.
Headache intensity was measured on a verbal 1 to 10 scale prior to and 15 minutes after the infusion. A greater than 50% reduction of pain intensity was considered a positive response. The recurrence or worsening of a headache within the following 24 was determined in a telephone interview on the following day. The clinical response to the IMg^2+ levels was correlated. The correlation was considered to be positive if patients with a normal IMg^2+ level (≧0.55 mmol/L) had no relief or less than 24 hrs of relief. In patients with low IMg^2+ levels (<0.55 mmol/L), a correlation was considered positive only if relief lasted for more than 24 hrs.
Mean values±S.E.M. were calculated and compared for statistical significance by a Student's t-test, ANOVA with Scheffe's contrast test, analysis of co-variance for age, and linear regression analysis, where appropriate. Chi-Square tests were also utilized where appropriate. A p-value of less than 0.05 was considered significant.

[3] = Oral glucose loading: ionized, total and intracellular free magnesium; format: in vivo, human; settings: oral glucose 100 gm
Description: Ionized magnesium, serum total magnesium, and plasma renin activity (PRA) in fasting normotensive (NT) (n=20), essential hypertensive (n=28) subjects was monitored before, and 60, 90, 120 and 180 minutes after oral glucose loading (100 gm). Results were compared to intracellular free magnesium values obtained at the same time intervals as measured using ^31P-NMR spectroscopy.

[4] = of the 40 patients given IV MgSO4

SMILES: CC(=O)Nc1ccc(O)cc1 [acetaminophen]
- relief of headache [1]: no relief

SMILES: CC(C)Cc1ccc(C(C)C(=O)O)cc1 (centres unmarked) [ibuprofen]
- relief of headache [1]: no relief

SMILES: COc1ccc2cc(CCC(C)=O)ccc2c1 [nabumetone]
- relief of headache [1]: no relief

SMILES: O=S(=O)([O-])[O-].[Mg+2] [MgSO4, magnesium sulfate]
- other side effects ([2]; 40 patients, IV infusion): No other side effects were noted
- side effect during the IV infusion ([2]; almost all patients): flushed feeling
- duration of relief ([2]; cluster headache, repeat infusions of 1 to 3 gram each): approximately 48 hours
- Return Within 24 hr ([2]; individual chronic tension headache patients, recurrence or worsening of headache within 24 hr): N
- Response ([2]; individual cluster headache patients, 1 g MgSO4 IV over 5 min, positive = greater than 50% reduction of pain intensity 15 min after infusion): Y
- onset of improvement of headache ([2]; most patients): began to improve before the end of infusion
- duration of relief ([2]; most patients whose headache returned within 24 hours): 1 to 2 h
- number of patients with persistent relief of headache beyond 24 hours ([2]; of the 32 initial responders): 18 patients
- number of patients with at least a 50% initial reduction of pain intensity [2, 4]: 32 patients
- patients with at least a 50% initial reduction of pain intensity [2, 4]: 80%
- duration of relief ([2]; patient #17, chronic cluster headache, after the initial and each of three subsequent infusions): 28 h
- persistence of response ([2]; patient #27 (youngest patient), single infusion): positive response to Mg that persists five months later
- duration of relief ([2]; patient #28, chronic migrainous headache): 24 h
- outcome of cluster episode ([2]; patients #18 and #19, episodic clusters, single infusion): aborted the entire cluster episode
- time to return of headaches ([2]; patients #24 and #25, episodic clusters): ≤ 24 h
- duration of relief ([2]; the other four cluster headache patients): two-seven
- patients with complete elimination of pain ([2]; within 5 min of infusion): 80%

SMILES: O=C[C@H](O)[C@@H](O)[C@H](O)[C@H](O)CO [glucose]
- total magnesium values after glucose loading [3]: did not differ
- ionized Mg2+ levels after oral glucose loading ([3]; elevated from 0.60±0.02, ion selective electrode, p<0.01): 0.64 ± 0.02 mM
- intracellular Mg after oral glucose loading ([3]; lowered from 219± 12, 31P-NMR, p<0.01): 193 ± 13 µM
